Laboratory results: patent publication US20220348662A1, “USE OF FGFR INHIBITORS IN FGFR-GENETICALLY ALTERED CANCERS TO ENHANCE PATIENT RESPONSE TO IMMUNE CHECKPOINT INHIBITORS IN SEQUENTIAL TREATMENT SETTINGS” (JANSSEN PHARMACEUTICA NV, priority 2019, published 2022)

Key:
[1] = system: advanced urothelial carcinoma; conditions: luminal 1 subtype compared with other bladder cancer subtypes; cited from earlier work
[2] = system: CD38+ T cells in peripheral blood; assay: BLC2002 phase 1b immune cell profiling of blood by flow cytometry (T cell activation); type: in vivo, human; conditions: FIG. 4c; E8RJ cohort at C1D15, erdafitinib treatment alone (run-in)
Experimental: Blood for immune cell profiling were collected at four time points (C1D1, C1D15, C2D1 and C3D1) and subjected to flow cytometry analysis on a real time basis. T cell activation is quantified as fold increase in the proportions of 1) CD38+CD3, CD38+CD4, or CD38+CD8 T cells out of lymphocytes or CD3 T cell populations, and 2) CD38+ cells out of CD4+ or CD8+T cell populations, compared to the baseline proportion levels at C1D1.
Longitudinal blood samples were analyzed from DL2A (E8J cohort: Erda 8 mg+cetrelimab 240 mg), DL2B (E8RJ cohort: Erda 8 mg 28 days run-in +cetrelimab 240 mg), and DL2 (EJ cohort: Erda 8 mg with the potential dose adjustments to 9 mg depending on phosphate levels measured on C1D15+cetrelimab 240 mg).

Molecule | response rate by bladder cancer molecular subtype [1] | proportion of CD38+CD8 T cells compared to baseline C1D1 [2]
nivolumab: checkpoint inhibitor; antibody that blocks the interaction between PD-1 and PD-L1 | lowest response rate | –
atezolizumab: checkpoint inhibitor; antibody that blocks the interaction between PD-1 and PD-L1 | lowest response rate | –
COc1cc(OC)cc(N(CCNC(C)C)c2ccc3ncc(-c4cnn(C)c4)nc3c2)c1 [erdafitinib, N-(3,5-dimethoxyphenyl)-N′-(1-methylethyl)-N-[3-(1-methyl-1H-pyrazol-4-yl)quinoxalin-6-yl]ethane-1,2-diamine] | – | dramatically increased
